Where “and” joins values, the source holds several entries; their conditions need not be identical. Equal values may be shown once.
What was measured:
[1] = test system: Experimental Allergic Encephalomyelitis (EAE); test: EAE in macaques: clinical evaluation and survival; type: in vivo, Macaca fascicularis
Method: Eighteen male monkeys Macaca fascicularis weighing 2-3 kg were sensitized to myelin basic protein (BP) by the intra dermal injection of 0.1 ml of an emulsion containing 5.0 mg of monkey BP and 0.5 mg of heat-killed M. tuberculosis. Each animal was obtained and housed by the Regional Primate Research Center at the University of Washington, Seattle. The Primate Center conforms to the National Institutes of Health Guide for the Care and Use of laboratory Animals. Ten days after sensitization to BP, each animal was outfitted with a femoral catheter and tether to facilitate blood sampling and the administration of treatments or anesthetics for magnetic resonance imaging (MRI). The animals were maintained on intravenous heparin (18 units/hour) to prevent blood clots from forming in the intra venous lines.
The animals were randomly admitted to specific treatment groups before they were sensitized to BP. This was done to schedule MRI and to prevent the severity of clinical signs at the onset from influencing the choice of therapy. Primate Center personnel, responsible for deciding when animals should be treated or sacrificed, were blinded regarding the treatment history of each animal. Table 1 below provides a statement of criteria for determination of clinical signs and grades of EAE in the animals.
At the onset of definite clinical signs (± to +) six EAE animals received a bolus injection of mAb 60.3 (2 mg/kg) and dexamethasone (4 mg/kg). […]. Sever acute EAE occurs in approximately 25 % of animals induced to develop EAE and is caused by edema in areas involving or impinging upon the brain stem or cerebral cortex. Following injection of the bolus, these six animals were treated by continuous infusion of mAb 60.3 (2 mg/kg/day) for seven days. […]. Six control EAE animals were treated only with dexamethasone, following the same protocol outlined above, and six additional controls were treated with continuous infusion of saline.
Animals that improved and/or stabilized as a result of therapy were sacrificed six weeks after the onset of clinical signs. Animals that experienced a clinical relapse (clinical signs ≧++) some time after the cessation of treatment and before six weeks had elapsed, were sacrificed shortly after the onset of the relapse. […] The statistical significance of differences in survival times in each treatment group was determined by two-tailed Student t analysis.
Disease progression was monitored by a combination of clinical evaluation, blood analysis and magnetic resonance imaging. Clinical evaluations were performed twice daily. […]

white blood cell = test: WBC counts in blood of EAE animals; type: in vivo, Macaca fascicularis; conditions: individual animals
From the text: The hematologic hallmarks of untreated EAE are a progressive leukocytosis and lymphopenia prior to the onset of clinical signs. The leukocytosis can represent as much as a four-fold increase in the number of circulating PMNC and no significant changes in the frequency or absolute numbers of monocytes, eosinophils, or basophils. Following successful treatments of EAE, the absolute numbers of lymphocytes and PMNC return, fairly soon after the initiation of treatment, to pre-sensitization levels. Thus, continuous monitoring of blood leukocytes provides a useful measure of disease progression which complements the clinical evaluation and magnetic resonance imaging.
Blood was drawn on a weekly basis until the onset of clinical disease and then more frequently. One-half ml was sent to the hematology laboratory for WBC and differential counts. The results are set out in Table 3 below providing white blood cell number (×10^3) per mm^3 whole blood.
Two Macaca fascicularis monkeys were then involved in a study to preliminarily determine the ability of mAb 23F2G to alleviate EAE symptoms. The EAE induction procedures were essentially as in Example 1. Two animals, Nos. 89161 and 89186, sensitized to 1.0 mg of purified monkey basic protein and developed hyperacute hemorrhagic EAE 18 and 20 days post sensitization, respectively. Animal 89161 died within 12 hours of onset and before treatment with dexamethasone could be initiated. Animal 89186 was treated for a week with both dexamethasone (3 days at 4 mg/kg, 2 days at 2 mg/kg and 2 days at 1 mg/kg) and mAb 23F2G (7 days at 2 mg/kg, i.v.). The animal improved dramatically with complete resolution of paralysis three days after initiation of treatment. Lesions detected by MRI resolved four days after cessation of treatment and the animal improved dramatically with complete resolution of paralysis. Eight days following cessation of treatment, the animal relapsed and was sacrificed. […] The white blood cell count rose from 22.7×10^3 on the day of clinical onset to 82×10^3 /mm^3 on the last day of treatment.

C[C@@H]1C[C@H]2[C@@H]3CCC4=CC(=O)C=C[C@]4(C)[C@@]3(F)[C@@H](O)C[C@]2(C)[C@@]1(O)C(=O)CO [dexamethasone]
mean survival time ([1]; after onset, group of six EAE macaques): 7 days | survival after onset (range of group) ([1]; group of six EAE macaques): 1 to 17 days | Grade (severity of clinical signs at time of sacrifice) ([1]; individual EAE macaques, 7-day treatment from onset of clinical signs, listed as dex alone): ++ | Survival (days of survival post-onset) ([1]; individual EAE macaques, 7-day treatment from onset of clinical signs, stable animals sacrificed at six weeks (42 days), listed as dex alone): 17 days and 1 days (2×) and 2 days and 13 days and 9 days | white blood cell number (white blood cell; Day 2): 3.1 ×10^3 per mm^3 whole blood and 5.4 ×10^3 per mm^3 whole blood | white blood cell number (white blood cell; Day 4): 3.7 ×10^3 per mm^3 whole blood and 3.6 ×10^3 per mm^3 whole blood | white blood cell number (white blood cell; Day 7 (end of treatment)): 3.8 ×10^3 per mm^3 whole blood and 7.0 ×10^3 per mm^3 whole blood | white blood cell number (white blood cell; Day 10): 8.7 ×10^3 per mm^3 whole blood and 10.7 ×10^3 per mm^3 whole blood | white blood cell number (white blood cell; Day 14): 7.9 ×10^3 per mm^3 whole blood | white blood cell number (white blood cell; Onset of clinical signs (start of treatment)): 9.6 ×10^3 per mm^3 whole blood and 9.0 ×10^3 per mm^3 whole blood and 14.6 ×10^3 per mm^3 whole blood and 32.2 ×10^3 per mm^3 whole blood and 12.4 ×10^3 per mm^3 whole blood and 16.3 ×10^3 per mm^3 whole blood | white blood cell number (white blood cell; Presens (baseline before sensitization)): 4.7 ×10^3 per mm^3 whole blood and 6.1 ×10^3 per mm^3 whole blood and 6.7 ×10^3 per mm^3 whole blood and 13.5 ×10^3 per mm^3 whole blood and 8.9 ×10^3 per mm^3 whole blood and 14.1 ×10^3 per mm^3 whole blood

— patent US6737059B1, “Methods of inhibiting inflammatory processes and alleviating symptoms associated with multiple sclerosis” (Board of Regents of the University Washington, priority 1992, dated 2004)
